# According to ChEMBL document CHEMBL2331182, “Discovery of a small-molecule antiviral targeting the HIV-1 matrix protein” (Bioorg Med Chem Lett, 2013):
# Experiments:
# [1] = target: T1, Structural capsid protein (Human immunodeficiency virus 1, UniProt Q76129); assay: Inhibition of HIV1 capsid
# [2] = target: T1, Structural capsid protein; assay: Binding affinity to HIV1 capsid
# T1 sequence (Q76129 whole entry): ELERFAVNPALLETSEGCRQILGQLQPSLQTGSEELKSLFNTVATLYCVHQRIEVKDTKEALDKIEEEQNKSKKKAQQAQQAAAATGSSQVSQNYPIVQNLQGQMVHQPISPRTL
smiles,measurement,setting,value
Cc1ccc(NC(=O)NCCSCc2ccc(CN(C)C)o2)cc1Cl,IC50,[1],60 µM
same,Kd,[2],800 µM
